Read-outs that look alike come from different tables or passages of the source.
Assays:
[1] = system: apple Alternaria leaf blotch (Alternaria mali); experiment: Test Example 6: apple Alternaria leaf blotch, single and combined fungicides (Table 3); conditions: for Lesion area ratio (%) / Protection value: apple leaves; for protection effect in combination compared with estimated protection effect (synergy): in combination with mepanipyrim (No. 289) and iminoctadine (No. 97), respectively
Experimental: (§1) The protection value was calculated by means of the equation as follows. protection value=(1−(lesion area in the division treated with fungicide)/lesion area in the division not treated with fungicide))×100
(§2) An estimated protection value of a mixture of active ingredients was calculated according to the Colby's formula [R. S. Colby, Weeds 15, 20-22 (1967)] and compared with the experimental protection value.
[wherein, E is the estimated protection value (additive effect) which will be obtained when the active ingredients A and B are used in a mixture in concentrations a and b, respectively x is the protection value obtained when the active igredient A is used in a concentration a, and y is the protection value obtained when the active ingredient B is used in a concentration b.

[2] = system: cucumber gray mold (Botrytis cinerea); experiment: Test Example 9: cucumber gray mold, single and combined fungicides (Table 6); conditions: for Lesion area ratio (%) / Protection value: young cucumber (Yotsuba)
Experimental: as §1, §2
[wherein, E is the estimated protection value (additive effect) which will be obtained when the active ingredients A and B are used in a mixture in concentrations a and b, respectively x is the protection value obtained when the active igredient A is used in a concentration a, and y is the protection value obtained when the active ingredient B is used in a concentration b. […] A protection value equal 0 means that the lesion area ratio of the plants in the test group is as large as that of the plants in the untreated control group. A protection value equals 100 means that the plants in the test group are free from the disease.
The test compound (denoted by the compound No. in Table 1 above), azoxystrobin, mepanipyrim and iprodione, individually or in combination, were dissolved in dimethylformamide (final concentration was 1 wt %). Xylene (final concentration was 0.02 wt %) and Tween 20 (Trade Name) (final concentration was 0.02 wt %) were added to the solution. The resulting mixture was diluted with water to give a test solution which contained a given concentration (ppm) of the active ingredient. A spreader adjuvant SINDAIN (Trade Name, Manufactured by Takeda Chemical Industries, Ltd, and comprises 20 wt % of polyoxyethylene nonylphenyl ether and 12 wt % of calcium ligninsulfonate) was added to this solution in the final concentration of 0.05 wt % to give a spray agent.
The spray agent was sprayed in an amount of 10 ml/pot on young cucumber (cultural variety: Yotsuba) cultivated for 3 to 4 weeks in a greenhouse. After drying up in a room, the treated cucumbers were inoculated with pathogenic fangi on the leaves by placing the mycelial disks which were cut out from a PSA medium grown with Botrytis cinerea and then kept in a greenhouse at 28° C. for 3 days. Then, the ratio of the lesion area on the plants treated with the test compound and that on the plants treated with another substances to that on untreated plants was investigated.

[3] = system: apple Alternaria leaf blotch (Alternaria mali); experiment: Test Example 5: apple Alternaria leaf blotch, single and combined fungicides (Table 2); assay type: in vivo; conditions: for Lesion area ratio (%) / Protection value: apple seedlings; for protection effect in combination compared with estimated protection effect (synergy): in combination with chlorothalonil, hexaconazole and azoxystrobin
[4] = system: rice blast (Pyricularia oryzae); assay type: in vivo; conditions: for Lesion area ratio (%) / Protection value: rice plants
[5] = system: rice Helminthosporium leaf spot (Cochliobolus miyabeanus); experiment: Test Example 8: rice Helminthosporium leaf spot, single and combined fungicides (Table 5); assay type: in vivo; conditions: for Lesion area ratio (%) / Protection value: young rice plants

With `Cc1ccc(S(=O)(=O)N(C)c2ccccc2[N+](=O)[O-])cc1` [Compound No. 38, N-Methyl-2′-nitro-p-toluenesulfonanilide] the melting point was 131.5 to 132.5 °C.
With `Cc1ccc(S(=O)(=O)N(c2ccc(Cl)cc2C#N)C(C)C)cc1` [Compound No. 97, 4′-Chloro-2′-cyano-N-isopropyl-p-toluenesulfonanilide] the “Lesion area ratio (%)” value ([1]; 0.4 ppm active ingredient) was 25.0%, the Protection value ([1]; 0.4 ppm active ingredient) was 65 and the “Lesion area ratio (%)” value ([1]; 1.6 ppm active ingredient) was 19.2%. The Protection value ([1]; 1.6 ppm active ingredient) was 73, the “Lesion area ratio (%)” value ([1]; 6.3 ppm active ingredient) was 8.0% and the Protection value ([1]; 6.3 ppm active ingredient) was 89. The “protection effect in combination compared with estimated protection effect (synergy)” value [1] was “higher protection effect”.
For `N=C(N)NCCCCCCCCNCCCCCCCCNC(=N)N` [Iminoctadine, iminoctadine, reference compound], the “Lesion area ratio (%)” value ([1]; 0.4 ppm active ingredient) was 66.7%, the Protection value ([1]; 0.4 ppm active ingredient) was 6 and the “Lesion area ratio (%)” value ([1]; 1.6 ppm active ingredient) was 33.8%. For the same compound, the Protection value ([1]; 1.6 ppm active ingredient) was 52, the “Lesion area ratio (%)” value ([1]; 6.3 ppm active ingredient) was 35.0% and the Protection value ([1]; 6.3 ppm active ingredient) was 51.
In the case of `CC#Cc1cc(C)nc(Nc2ccccc2)n1` [Mepanipyrim, mepanipyrim, reference compound], the “Lesion area ratio (%)” value ([1]; 0.4 ppm active ingredient) is reported as 68.3%, the Protection value ([1]; 0.4 ppm active ingredient) is reported as 4 and the “Lesion area ratio (%)” value ([1]; 1.6 ppm active ingredient) is reported as 73.3%. The Protection value ([1]; 1.6 ppm active ingredient) was 0, the “Lesion area ratio (%)” value ([1]; 6.3 ppm active ingredient) was 19.3% and the Protection value ([1]; 6.3 ppm active ingredient) was 73. The “Lesion area ratio (%)” value ([2]; 10 ppm active ingredient) was 6.0% and the Protection value ([2]; 10 ppm active ingredient) was 53.8.
In the case of `CCCCC(O)(Cn1cncn1)c1ccc(Cl)cc1Cl` (stereo not drawn) [Hexaconazole, hexaconazole, reference compound], the “Lesion area ratio (%)” value ([3]; 0.4 ppm active ingredient) is reported as 70.0%, the Protection value ([3]; 0.4 ppm active ingredient) is reported as 0 and the “Lesion area ratio (%)” value ([3]; 1.6 ppm active ingredient) is reported as 66.7%. The Protection value ([3]; 1.6 ppm active ingredient) was 0, the “Lesion area ratio (%)” value ([3]; 6.3 ppm active ingredient) was 21.7% and the Protection value ([3]; 6.3 ppm active ingredient) was 63.
In the case of `CO/C=C(/C(=O)OC)c1ccccc1Oc1cc(Oc2ccccc2C#N)ncn1` [Azoxystrobin, azoxystrobin, reference compound], the “Lesion area ratio (%)” value ([2]; 10 ppm active ingredient) is reported as 3.9%, the Protection value ([2]; 10 ppm active ingredient) is reported as 69.8 and the “Lesion area ratio (%)” value ([3]; 6.3 ppm active ingredient) is reported as 25.8%. The Protection value ([3]; 6.3 ppm active ingredient) was 56, the “Lesion area ratio (%)” value ([3]; 25 ppm active ingredient) was 25.0% and the Protection value ([3]; 25 ppm active ingredient) was 58. The “Lesion area ratio (%)” value ([4]; 0.1 ppm active ingredient) was 11.0%, the Protection value ([4]; 0.1 ppm active ingredient) was 56 and the “Lesion area ratio (%)” value ([4]; 0.5 ppm active ingredient) was 5.0%. It also gave a Protection value ([4]; 0.5 ppm active ingredient) of 80.
In the case of `Cc1ccc(S(=O)(=O)N(c2ccc([N+](=O)[O-])cc2C#N)C(C)C)cc1` [Compound No. 421], the “Lesion area ratio (%)” value ([3]; 0.4 ppm active ingredient) is reported as 24.7%, the Protection value ([3]; 0.4 ppm active ingredient) is reported as 58 and the “Lesion area ratio (%)” value ([3]; 1.6 ppm active ingredient) is reported as 20.0%. The Protection value ([3]; 1.6 ppm active ingredient) was 66, the “Lesion area ratio (%)” value ([3]; 6.3 ppm active ingredient) was 2.3% and the Protection value ([3]; 6.3 ppm active ingredient) was 96. For the same compound, the “Lesion area ratio (%)” value ([3]; 25 ppm active ingredient) was 0.3%, the Protection value ([3]; 25 ppm active ingredient) was 99 and the “protection effect in combination compared with estimated protection effect (synergy)” value [3] was “higher protection effect”.
For `N#Cc1c(Cl)c(Cl)c(Cl)c(C#N)c1Cl` [Chlorothalonil, chlorothalonil, reference compound], the “Lesion area ratio (%)” value ([3]; 6.3 ppm active ingredient) was 43.5%, the Protection value ([3]; 6.3 ppm active ingredient) was 27 and the “Lesion area ratio (%)” value ([3]; 25 ppm active ingredient) was 60.0%. The Protection value ([3]; 25 ppm active ingredient) was 0, the “Lesion area ratio (%)” value ([3]; 100 ppm active ingredient) was 16.8% and the Protection value ([3]; 100 ppm active ingredient) was 72.
In the case of `CCN(c1ccc(Cl)cc1[N+](=O)[O-])S(=O)(=O)c1ccc(C)cc1` [Compound No. 289, 4′-Chloro-N-ethyl-2′-nitro-p-toluenesulfonanilide], the “Lesion area ratio (%)” value ([5]; 25 ppm active ingredient) is reported as 5.0%, the Protection value ([5]; 25 ppm active ingredient) is reported as 71.4 and the “Lesion area ratio (%)” value ([5]; 100 ppm active ingredient) is reported as 4.5%. For the same compound, the Protection value ([5]; 100 ppm active ingredient) was 74.3, the “protection effect in combination compared with estimated protective effect (synergy)” value ([5]; in combination with ferimzone) was “higher protection effect” and the “Lesion area ratio (%)” value ([1]; 0.4 ppm active ingredient) was 18.3%. For the same compound, the Protection value ([1]; 0.4 ppm active ingredient) was 74, the “Lesion area ratio (%)” value ([1]; 1.6 ppm active ingredient) was 13.7% and the Protection value ([1]; 1.6 ppm active ingredient) was 81. The “Lesion area ratio (%)” value ([1]; 6.3 ppm active ingredient) was 9.3%, the Protection value ([1]; 6.3 ppm active ingredient) was 87 and the “protection effect in combination compared with estimated protection effect (synergy)” value [1] was “higher protection effect”. For the same compound, the “Lesion area ratio (%)” value ([2]; 100 ppm active ingredient) was 13.2%, the Protection value ([2]; 100 ppm active ingredient) was 0.0 and the “protection effect in combination compared with estimated protection effect (synergy)” value ([2]; in combination with azoxystrobin, mepanipyrim and iprodione) was “higher protection effect”. The “Lesion area ratio (%)” value ([3]; 0.4 ppm active ingredient) was 36.9%, the Protection value ([3]; 0.4 ppm active ingredient) was 38 and the “Lesion area ratio (%)” value ([3]; 1.6 ppm active ingredient) was 20.8%. For the same compound, the Protection value ([3]; 1.6 ppm active ingredient) was 65, the “Lesion area ratio (%)” value ([3]; 6.3 ppm active ingredient) was 3.8% and the Protection value ([3]; 6.3 ppm active ingredient) was 94. For the same compound, the “Lesion area ratio (%)” value ([3]; 25 ppm active ingredient) was 4.3%, the Protection value ([3]; 25 ppm active ingredient) was 93 and the “protection effect in combination compared with estimated protection effect (synergy)” value [3] was “higher protection effect”. For the same compound, the “Lesion area ratio (%)” value ([4]; 100 ppm active ingredient) was 25.0%, the Protection value ([4]; 100 ppm active ingredient) was 0 and the “Lesion area ratio (%)” value ([4]; 200 ppm active ingredient) was 25.0%. The Protection value ([4]; 200 ppm active ingredient) was 0 and the “protection effect in combination compared with estimated protection effect (synergy)” value ([4]; in combination with azoxystrobin) was “higher protection effect”.
In the case of `CC(C)NC(=O)N1CC(=O)N(c2cc(Cl)cc(Cl)c2)C1=O` [Iprodione, iprodione], the “Lesion area ratio (%)” value ([2]; 10 ppm active ingredient) is reported as 3.7% and the Protection value ([2]; 10 ppm active ingredient) is reported as 71.3.
For `C/C(=N/Nc1nc(C)cc(C)n1)c1ccccc1C` [Ferimzone, ferimzone, reference compound], the “Lesion area ratio (%)” value ([5]; 25 ppm active ingredient) was 1.5%, the Protection value ([5]; 25 ppm active ingredient) was 91.4 and the “Lesion area ratio (%)” value ([5]; 100 ppm active ingredient) was 0.4%. For the same compound, the Protection value ([5]; 100 ppm active ingredient) was 98.0.
In the case of `CCN(c1ccc(SC)cc1[N+](=O)[O-])S(=O)(=O)c1ccc(C)cc1` [Compound No. 227, N-Ethyl-4′-methylthio-2′-nitro-p-toluenesulfonanilide], the melting point is reported as 135 to 136 °C.
With `CON(c1ccc([N+](=O)[O-])cc1Cl)S(=O)(=O)c1cc(Cl)ccc1Cl` [Compound No. 528, N-Methoxy-4′-nitro-2,2′,5-trichlorobenzenesulfonanilide] the melting point was 136 to 138 °C.

From patent US6586617B1, “Sulfonamide derivatives” (Sumitomo Chemical Takeda Agro Company, Limited, priority 1999, dated 2003)
